Laboratory results: ChEMBL document CHEMBL1201861, “Genomics of Drug Sensitity in Cancer screening data, Wellcome Trust Sanger Institute”
Where “and” joins values, the source holds several entries; their conditions need not be identical. Equal entries are not always repeated. Where a SMILES comes first, the peptide text is derived from it. The star is where a group is joined. Cbz = O=C(OCc1ccccc1)*

Columns and labels:
Assay in all cases: cells
NOS-1 = type: functional, cell-based, Homo sapiens;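 further: growth inhibition of the human NOS-1 cell line, read out with a cell viability assay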
Description: SANGER: Inhibition of human NOS-1 cell growth in a cell viability assay.

OCI-AML2 = type: functional, cell-based, Homo sapiens;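 further: growth inhibition of OCI-AML2 cells, read out with a cell viability assay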
Description: SANGER: Inhibition of human OCI-AML2 cell growth in a cell viability assay.

TGBC1TKB = type: functional, cell-based, Homo sapiens;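 further: growth inhibition of TGBC1TKB cells, read out by a cell viability assay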
Description: SANGER: Inhibition of human TGBC1TKB cell growth in a cell viability assay.

KARPAS-299 = type: functional, cell-based, Homo sapiens
Description: SANGER: Inhibition of human KARPAS-299 cell growth in a cell viability assay.

KM12 = type: functional, cell-based, Homo sapiens;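 further: KM12 cell growth inhibition, read out with a cell viability assay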
Description: SANGER: Inhibition of human KM12 cell growth in a cell viability assay.

SW 962 = type: functional, cell-based, Homo sapiens;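 further: growth inhibition of human SW962 cells, read out by a cell viability assay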
Description: SANGER: Inhibition of human SW962 cell growth in a cell viability assay.

NCI-H1770 = type: functional, cell-based, Homo sapiens;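 further: growth inhibition of NCI-H1770 cells determined with a viability readout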
Description: SANGER: Inhibition of human NCI-H1770 cell growth in a cell viability assay.

U-266 = type: functional, cell-based, Homo sapiens
Description: SANGER: Inhibition of human U-266 cell growth in a cell viability assay.

LC-2-ad = type: functional, cell-based, Homo sapiens;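 further: growth inhibition of human LC-2-ad cells, read out with a cell viability assay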
Description: SANGER: Inhibition of human LC-2-ad cell growth in a cell viability assay.

SNU1 = type: functional, cell-based, Homo sapiens;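 further: growth inhibition of human NCI-SNU-1 cells, measured with a cell viability assay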
Description: SANGER: Inhibition of human NCI-SNU-1 cell growth in a cell viability assay.

D-263MG = type: functional, cell-based, Homo sapiens
Description: SANGER: Inhibition of human D-263MG cell growth in a cell viability assay.

EW-3 = type: functional, cell-based, Homo sapiens;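 further: cell viability assay read-out, IC50 reflects inhibition of growth of the EW-3 cells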
Description: SANGER: Inhibition of human EW-3 cell growth in a cell viability assay.

CGTH-W-1 = type: functional, cell-based, Homo sapiens;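 further: growth inhibition of human CGTH-W-1 cells measured by cell viability assay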
Description: SANGER: Inhibition of human CGTH-W-1 cell growth in a cell viability assay.

RKO = type: functional, cell-based, Homo sapiens;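 further: growth inhibition of human RKO cells, read out with a cell viability assay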
Description: SANGER: Inhibition of human RKO cell growth in a cell viability assay.

LU-134-A = type: functional, cell-based, Homo sapiens
Description: SANGER: Inhibition of human LU-134-A cell growth in a cell viability assay.

MN-60 = type: functional, cell-based, Homo sapiens;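 further: growth inhibition of the MN-60 cell line, determined with a cell viability assay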
Description: SANGER: Inhibition of human MN-60 cell growth in a cell viability assay.

NCI-H1092 = type: functional, cell-based, Homo sapiens;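 further: cell growth inhibition measured with a cell viability assay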
Description: SANGER: Inhibition of human NCI-H1092 cell growth in a cell viability assay.

COLO-824 = type: functional, cell-based, Homo sapiens
Description: SANGER: Inhibition of human COLO-824 cell growth in a cell viability assay.

PSN1 = type: functional, cell-based, Homo sapiens;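 further: suppression of growth of human PSN1 cells, read out by a cell viability assay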
Description: SANGER: Inhibition of human PSN1 cell growth in a cell viability assay.

HT = type: functional, cell-based, Homo sapiens
Description: SANGER: Inhibition of human HT cell growth in a cell viability assay.

HCE-4 = type: functional, cell-based; conditions: Homo sapiens;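 further: cell viability assay measuring inhibition of growth in the human HCE-4 cell line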
Description: SANGER: Inhibition of human HCE-4 cell growth in a cell viability assay.

ES3 = type: functional, cell-based, Homo sapiens;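 further: growth inhibition of ES3 cells, read out with a cell viability assay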
Description: SANGER: Inhibition of human ES3 cell growth in a cell viability assay.

KALS-1 = type: functional, cell-based, Homo sapiens; conditions: read-out: IC50;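 further: growth inhibition of KALS-1 cells, determined with a cell viability assay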
Description: SANGER: Inhibition of human KALS-1 cell growth in a cell viability assay.

KP-N-YS = type: functional, cell-based, Homo sapiens;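 further: cell viability assay measuring inhibition of cell line growth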
Description: SANGER: Inhibition of human KP-N-YS cell growth in a cell viability assay.

MLMA = type: functional, cell-based, Homo sapiens;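 further: growth inhibition of MLMA cells (human), determined through a cell viability readout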
Description: SANGER: Inhibition of human MLMA cell growth in a cell viability assay.

KU812 cell line = type: functional, cell-based, Homo sapiens;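 further: growth inhibition of KU812 cells, read out with a cell viability assay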
Description: SANGER: Inhibition of human KU812 cell growth in a cell viability assay.

NCI-H446 = type: functional, cell-based, Homo sapiens;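 further: growth inhibition of NCI-H446 cells determined by a cell viability assay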
Description: SANGER: Inhibition of human NCI-H446 cell growth in a cell viability assay.

MZ1-PC = type: functional, cell-based, Homo sapiens;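 further: cell viability assay measuring growth inhibition of human MZ1-PC cells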
Description: SANGER: Inhibition of human MZ1-PC cell growth in a cell viability assay.

KNS-81-FD = type: functional, cell-based, Homo sapiens;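 further: growth inhibition of KNS-81-FD cells, read out with a cell viability assay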
Description: SANGER: Inhibition of human KNS-81-FD cell growth in a cell viability assay.

NCI-H1648 = type: functional, cell-based, Homo sapiens;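 further: cell viability assay measuring inhibition of NCI-H1648 cell growth, from the Sanger screening data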
Description: SANGER: Inhibition of human NCI-H1648 cell growth in a cell viability assay.

KY821 = type: functional, cell-based, Homo sapiens;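 further: growth inhibition of human KY821 cells, read out by a cell viability assay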
Description: SANGER: Inhibition of human KY821 cell growth in a cell viability assay.

TE-11 = type: functional, cell-based; conditions: Homo sapiens;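 further: growth inhibition of human TE-11 cells, read out by a cell viability assay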
Description: SANGER: Inhibition of human TE-11 cell growth in a cell viability assay.

NCI-H1581 = type: functional, cell-based, Homo sapiens;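 further: cell growth inhibition read out by a viability assay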
Description: SANGER: Inhibition of human NCI-H1581 cell growth in a cell viability assay.

KG-1 = type: functional, cell-based, Homo sapiens;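 further: growth inhibition of KG-1 cells, read out by a cell viability assay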
Description: SANGER: Inhibition of human KG-1 cell growth in a cell viability assay.

NCI-H526 = type: functional, cell-based, Homo sapiens;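 further: growth inhibition of the human NCI-H526 cell line, measured by a cell viability assay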
Description: SANGER: Inhibition of human NCI-H526 cell growth in a cell viability assay.

A253 cell line = type: functional, cell-based, Homo sapiens;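 further: growth inhibition of A253 cells, read out with a cell viability assay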
Description: SANGER: Inhibition of human A253 cell growth in a cell viability assay.

TE-5 = type: functional, cell-based, Homo sapiens;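 further: inhibition of cell growth, read out by a cell viability assay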
Description: SANGER: Inhibition of human TE-5 cell growth in a cell viability assay.

JVM-3 = type: functional, cell-based, Homo sapiens;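 further: growth inhibition of human JVM-3 cells, read out with a cell viability assay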
Description: SANGER: Inhibition of human JVM-3 cell growth in a cell viability assay.

RS4-11 = type: functional, cell-based, Homo sapiens;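 further: growth inhibition of RS4-11 cells, read out by a cell viability assay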
Description: SANGER: Inhibition of human RS4-11 cell growth in a cell viability assay.

LS-411N = type: functional, cell-based, Homo sapiens
J-RT3-T3-5 = type: functional, cell-based, Homo sapiens;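 further: cell viability assay measuring growth inhibition of human J-RT3-T3-5 cells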
Description: SANGER: Inhibition of human J-RT3-T3-5 cell growth in a cell viability assay.

BB65-RCC = type: functional, cell-based, Homo sapiens;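 further: growth inhibition of the cell line, measured with a cell viability assay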
Description: SANGER: Inhibition of human BB65-RCC cell growth in a cell viability assay.

BT-474 = type: functional, cell-based, Homo sapiens
Description: SANGER: Inhibition of human BT-474 cell growth in a cell viability assay.

OMC-1 = type: functional, cell-based, Homo sapiens;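 further: growth inhibition of the OMC-1 cell line, measured by a cell viability assay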
Description: SANGER: Inhibition of human OMC-1 cell growth in a cell viability assay.

ES1 = type: functional, cell-based, Homo sapiens;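 further: growth inhibition of ES1 cells, read out with a cell viability assay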
Description: SANGER: Inhibition of human ES1 cell growth in a cell viability assay.

EW-1 = type: functional, cell-based, Homo sapiens;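 further: growth inhibition of the human EW-1 cell line, read out by a cell viability assay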
Description: SANGER: Inhibition of human EW-1 cell growth in a cell viability assay.

UACC-257 = type: functional, cell-based, Homo sapiens
Description: SANGER: Inhibition of human UACC-257 cell growth in a cell viability assay.

SK-MEL-2 = type: functional, cell-based, Homo sapiens;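 further: growth inhibition of human SK-MEL-2 cells measured with a cell viability assay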
Description: SANGER: Inhibition of human SK-MEL-2 cell growth in a cell viability assay.

DSH1 = type: functional, cell-based; conditions: Homo sapiens;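 further: growth inhibition of human DSH1 cells, measured with a cell viability readout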
Description: SANGER: Inhibition of human DSH1 cell growth in a cell viability assay.

SMILES: CO[C@@H]1[C@H](N(C)C(=O)c2ccccc2)C[C@H]2O[C@]1(C)n1c3ccccc3c3c4c(c5c6ccccc6n2c5c31)C(=O)NC4 [MIDOSTAURIN]
- IC50 (NOS-1; Homo sapiens, NOS-1): > 0.512 µM
- IC50 (OCI-AML2; Homo sapiens, OCI-AML2): > 0.512 µM
- IC50 (TGBC1TKB; Homo sapiens, TGBC1TKB): > 0.512 µM
- IC50 (KARPAS-299; Homo sapiens, KARPAS-299): > 0.512 µM
- IC50 (KM12; Homo sapiens, KM12): 0.0928 µM
- IC50 (SW 962; Homo sapiens, SW 962): > 0.512 µM
- IC50 (NCI-H1770; Homo sapiens, NCI-H1770): > 0.512 µM

SMILES: CCCCCCCCCCCC1=C(O)C(=O)C=C(O)C1=O [EMBELIN]
- IC50 (U-266; Homo sapiens, U-266): > 32 µM
- IC50 (LC-2-ad; Homo sapiens, LC-2-ad): 12.9 µM
- IC50 (SNU1; Homo sapiens, SNU1): > 32 µM
- IC50 (NOS-1; Homo sapiens, NOS-1): 4.67 µM
- IC50 (D-263MG; Homo sapiens, D-263MG): > 32 µM
- IC50 (EW-3; Homo sapiens, EW-3): > 32 µM
- IC50 (CGTH-W-1; Homo sapiens, CGTH-W-1): 16.8 µM
- IC50 (RKO; Homo sapiens, RKO): 2.01 µM
- IC50 (LU-134-A; Homo sapiens, LU-134-A): > 32 µM
- IC50 (MN-60; Homo sapiens, MN-60): > 32 µM
- IC50 (OCI-AML2; Homo sapiens, OCI-AML2): 9.25 µM
- IC50 (NCI-H1092; Homo sapiens, NCI-H1092): > 32 µM
- IC50 (COLO-824; Homo sapiens, COLO-824): > 32 µM
- IC50 (PSN1; Homo sapiens, PSN1): 5.41 µM
- IC50 (HT; Homo sapiens, HT): 5.51 µM
- IC50 (HCE-4): 8.56 µM
- IC50 (ES3; Homo sapiens, ES3): 15.4 µM
- IC50 (TGBC1TKB; Homo sapiens, TGBC1TKB): 11 µM
- IC50 (KALS-1; Homo sapiens, KALS-1): 14.9 µM
- IC50 (KP-N-YS; Homo sapiens, KP-N-YS): > 32 µM
- IC50 (MLMA; Homo sapiens, MLMA): > 32 µM
- IC50 (KU812 cell line; Homo sapiens, KU812): > 32 µM
- IC50 (NCI-H446; Homo sapiens, NCI-H446): > 32 µM
- IC50 (MZ1-PC; Homo sapiens, MZ1-PC): 5.71 µM
- IC50 (KNS-81-FD; Homo sapiens, KNS-81-FD): 19.5 µM
- IC50 (NCI-H1648; Homo sapiens, NCI-H1648): 9.3 µM
- IC50 (KY821; Homo sapiens, KY821): > 32 µM
- IC50 (TE-11): > 32 µM
- IC50 (NCI-H1581; Homo sapiens, NCI-H1581): > 32 µM
- IC50 (KG-1; Homo sapiens, KG-1): > 32 µM
- IC50 (NCI-H526; Homo sapiens, NCI-H526): > 32 µM
- IC50 (A253 cell line; Homo sapiens, A253): 7.75 µM
- IC50 (TE-5; Homo sapiens, TE-5): 9.42 µM
- IC50 (JVM-3; Homo sapiens, JVM-3): > 32 µM
- IC50 (RS4-11; Homo sapiens, RS4-11): 10.5 µM
- IC50 (LS-411N; Homo sapiens, LS-411N): 7.49 µM
- IC50 (J-RT3-T3-5; Homo sapiens, J-RT3-T3-5): 6.09 µM
- IC50 (BB65-RCC; Homo sapiens, BB65-RCC): 11.4 µM
- IC50 (BT-474; Homo sapiens, BT-474): > 32 µM
- IC50 (OMC-1; Homo sapiens, OMC-1): 12.1 µM
- IC50 (ES1; Homo sapiens, ES1): 7.81 µM
- IC50 (EW-1; Homo sapiens, EW-1): 28.6 µM
- IC50 (UACC-257; Homo sapiens, UACC-257): > 32 µM
- IC50 (SK-MEL-2; Homo sapiens, SK-MEL-2): 11.7 µM
- IC50 (KARPAS-299; Homo sapiens, KARPAS-299): > 32 µM
- IC50 (KM12; Homo sapiens, KM12): 13.5 µM
- IC50 (SW 962; Homo sapiens, SW 962): 7.77 µM
- IC50 (NCI-H1770; Homo sapiens, NCI-H1770): > 32 µM
- IC50 (DSH1): > 32 µM

SMILES: CC(C)C[C@@H](C=O)NC(=O)[C@H](CC(C)C)NC(=O)[C@H](CC(C)C)NC(=O)OCc1ccccc1 [MG-132] (Cbz-Leu-Leu-Leu-aldehyde)
- IC50 (U-266; u-266): > 1 µM
- IC50 (LC-2-ad; Homo sapiens, LC-2-ad): > 1 µM
- IC50 (LC-2-ad; lc-2-ad): > 1 µM
- IC50 (SNU1; snu1): > 1 µM
- IC50 (NOS-1; nos-1): > 1 µM
- IC50 (D-263MG; d-263mg): 0.16 µM and > 1 µM
- IC50 (EW-3; ew-3): > 1 µM
- IC50 (CGTH-W-1; cgth-w-1): > 1 µM
- IC50 (RKO; rko): > 1 µM and 0.932 µM
- IC50 (LU-134-A; Homo sapiens, LU-134-A): > 1 µM
- IC50 (LU-134-A; lu-134-a): > 1 µM
- IC50 (MN-60; Homo sapiens, MN-60): > 1 µM
- IC50 (MN-60; mn-60): > 1 µM
- IC50 (OCI-AML2; oci-aml2): > 1 µM
- IC50 (NCI-H1092; nci-h1092): 0.388 µM and > 1 µM
- IC50 (COLO-824; colo-824): > 1 µM
- IC50 (PSN1; psn1): > 1 µM
- IC50 (HT; ht): > 1 µM
- IC50 (HCE-4): > 1 µM
- IC50 (ES3; es3): > 1 µM
- IC50 (TGBC1TKB; tgbc1tkb): > 1 µM and 0.686 µM
- IC50 (KALS-1; kals-1): 0.466 µM and > 1 µM
- IC50 (KP-N-YS; kp-n-ys): > 1 µM
- IC50 (MLMA; mlma): > 1 µM
- IC50 (KU812 cell line; Homo sapiens, KU812): > 1 µM
- IC50 (KU812 cell line; ku812): > 1 µM
- IC50 (NCI-H446; Homo sapiens, NCI-H446): > 1 µM
- IC50 (NCI-H446; nci-h446): > 1 µM
- IC50 (MZ1-PC; Homo sapiens, MZ1-PC): > 1 µM
- IC50 (MZ1-PC; mz1-pc): > 1 µM
- IC50 (KNS-81-FD; kns-81-fd): 0.303 µM and > 1 µM
- IC50 (NCI-H1648; Homo sapiens, NCI-H1648): > 1 µM
- IC50 (NCI-H1648; nci-h1648): > 1 µM
- IC50 (KY821; ky821): > 1 µM
- IC50 (TE-11): > 1 µM
- IC50 (NCI-H1581; Homo sapiens, NCI-H1581): > 1 µM
- IC50 (NCI-H1581; nci-h1581): > 1 µM
- IC50 (KG-1; kg-1): > 1 µM
- IC50 (NCI-H526; nci-h526): > 1 µM
- IC50 (A253 cell line; a253): 0.161 µM and > 1 µM
- IC50 (TE-5; te-5): 0.143 µM and > 1 µM
- IC50 (JVM-3; jvm-3): > 1 µM
- IC50 (RS4-11; rs4-11): > 1 µM and 0.956 µM
- IC50 (LS-411N; ls-411n): > 1 µM
- IC50 (J-RT3-T3-5; j-rt3-t3-5): > 1 µM
- IC50 (BB65-RCC; bb65-rcc): 0.568 µM and > 1 µM
- IC50 (BT-474; bt-474): > 1 µM
- IC50 (OMC-1; omc-1): > 1 µM
- IC50 (ES1; es1): > 1 µM
- IC50 (EW-1; ew-1): 0.21 µM and > 1 µM
- IC50 (UACC-257; uacc-257): 0.119 µM and > 1 µM
- IC50 (SK-MEL-2; sk-mel-2): > 1 µM
- IC50 (KARPAS-299; karpas-299): > 1 µM
- IC50 (KM12; km12): 0.855 µM and > 1 µM
- IC50 (SW 962; sw 962): > 1 µM
- IC50 (NCI-H1770; nci-h1770): > 1 µM
